According to patent publication US11976274B2, “Methods and compositions for identifying neoantigens for use in treating and preventing cancer” (Arizona Board of Regents on Behalf of Arizona State …, priority 2019, dated 2024):

Columns and labels:
Type in all cases: in vivo
4T1 cells = test: 4T1-BALB/c mouse breast tumor model, immunization and tumor challenge; details: for tumor retardation: gene vaccines, three immunizations, subcutaneous 2×10^3 4T1 cells, vs mock
Protocol: BALB/c and C57BL/6 mice were from Charles River Laboratories or Jackson Laboratories. […] Tumor volumes were measured and calculated by (Length^2×Width/2) daily after the size was larger than 1 mm^3. Breeding pairs of BALB-neuT and FVB-neuN (FVB/N-Tg (MMTVneu) 202Mul) mice were obtained from Joseph Lustgarten, Mayo Clinic Arizona. Mice were monitored weekly for the tumor incidence after tumor size reached 1 mm^3. All experiments were performed in accordance with protocols approved by the Institutional Animal Care and Use Committee of Arizona State University. Statistical significance of differences was analyzed by a Student t-test.
The DNA fragments encoding FS peptides were cloned as a C-terminal fusion into the genetic immunization vectors pCMVi-UB (26) and pCMVi-LSrCOMPTT (27, 28) with the Bgl II and Hind III and mixed with 1:1 ratio as the vaccine antigen. Three adjuvants were encoded by genetic immunization vectors. The pCMVi-mGM-CSF vector expresses the adjuvant mouse granulocyte/macrophage colony-stimulating factor (mGM-CSF) under control of the human cytomegalovirus (CMV) promoter (27). […]. Vectors pCMVi-UB, pCMVi-LSrCOMPTT, pCMVi-LTA (also called pCMVi-LS-LTA-R192G) and pCMVi-LTB are available from the PSI:Biology-Materials Repository DNASU (dnasu.org) at Arizona State University. Additional adjuvants were the class A CpG 2216 single-stranded oligodeoxynucleotide obtained from Sigma and alum from Pierce.
Bullets for biolistic genetic immunization used the gold micronanoplex approach and were prepared as described (30) with the following changes. Two grams of 1-micron gold was used. Prior to addition of N-hydroxysuccinimide and N-(3-dimethylaminopropyl)-N′-ethylcarbodiimide hydrochloride, the gold was resuspended in 20 mL of a 0.1 M solution of 2-(N-morpholino) ethanesulfonic acid (MES), pH 6.0. DNA-gold micronanoplexes were prepared by combining, per bullet, 57 μL of cysteamine-gold solution with precipitated DNA (≤10 μg) that had been resuspended in ≤15 μL of water, and then vortexing for 10 min. To the DNA-cysteamine-gold was added 6 μL/bullet of a freshly made solution of PEI-micron gold (167 mg/mL in 0.1 M MES, pH 6, without NaCl). The pelleted micronanoplexes were washed with ethanol prior to resuspension in n-butanol (55 μL/bullet), followed by bullet formation under nitrogen gas.
For the three MS FS experiments, all mice (n=10 per group) were genetically immunized in the ear by Gene Gun at 8 weeks of age (2 shots/mouse, 60 ng pooled antigens plus 0.25 μg LTAB and 2.5 μg CpG2216 as the adjuvant for each shot) and boosted twice (two days apart) in three weeks with 1 μg pooled antigens plus the same adjuvants dosage. All mice were boosted again in two weeks with 50 μg KLH conjugated MS FS peptides with 50 μg CpG 2216 and 50 ul alum in total 100 ul PBS. […]

[1] = test system: BALB-NeuT mouse breast tumor; test: BALB-NeuT transgenic mouse mammary cancer model, tumor free curve; details: Mantal-Cox test
Protocol: BALB/c and C57BL/6 mice were from Charles River Laboratories or Jackson Laboratories. For the tumor challenge, 5×10^3 4T1 cells were injected in the mammary pad at the right flank of the mice, or 1×10^5 B16F10 cells were injected subcutaneously in the right flank of the mice. Tumor volumes were measured and calculated by (Length^2×Width/2) daily after the size was larger than 1 mm^3. Breeding pairs of BALB-neuT and FVB-neuN (FVB/N-Tg (MMTVneu) 202Mul) mice were obtained from Joseph Lustgarten, Mayo Clinic Arizona. Mice were monitored weekly for the tumor incidence after tumor size reached 1 mm^3. All experiments were performed in accordance with protocols approved by the Institutional Animal Care and Use Committee of Arizona State University. Statistical significance of differences was analyzed by a Student t-test.
Mice were genetically immunized by Gene Gun at 4-6 weeks with 100 ng of antigen(s) in pCMVi vectors, boosted twice (3-4 days apart) at 9-10 weeks with 1 μg of the same antigen(s), and boosted once at 13-14 weeks with protein. Genetic immunizations included adjuvants LTAB (0.5 μg) and CpG 2216 (5 μg). Protein boosts were 50 μg of KLH conjugated FS peptides (SMC1A-1^4, n=32; RBM FS, n=22; SLAIN2 FS, n=14 and pool of three FS neoantigens, n=37). The protein boost included 50 μg CpG 2216 and 50 μl alum in 100 μl PBS as the adjuvant. […]

B16-F10 cells = test: B16F10-C57BL6 mouse melanoma tumor model, genetic immunization and tumor challenge; details: B16F10 melanoma in C57BL6, gene gun immunization, 1×10^5 cells, vs mock/control antigen CPV 172

| Sequence | tumor retardation (4T1 cells) | p, tumor free curve, 3FS pool vs individual FS antigen group [1] | 4T1 tumor growth (4T1 cells; BALB/c, gene gun plus KLH-peptide boost, 5×10^3 4T1 cells, vs empty vector/KLH) | T-cell dependence of protection (4T1 cells; depletion of CD8 or CD4 T-cells in immunized BALB/c mice, 4T1) | tumor growth (B16-F10 cells) |
| --- | --- | --- | --- | --- | --- |
| IPRMQPQASANHCQLLKVMVA [SLAIN2 FS] | conferred tumor retardation | 0.43 |  |  |  |
| TAIIGPNGSGCSGVYCHEEPQGEDSSV [mSMC1A-1^4] |  |  | significantly retarded the 4T1 tumor growth | CD8 T cell dependent | significant retardation of tumor growth |
| AVLLMCQLYQPWMCKEYYRLL [ZDHHC17 FS] | did not |  |  |  |  |
